Like-named read-outs stand apart in the source and are kept apart here.

The source of these data is patent US5849771A, “Phosphorylated nitrone derivatives, method for preparing same, and compositions containing said derivatives” (Centre National de la Recherche Scientifique (C.N.R.S.), priority 1995, dated 1998).

Data set [1] is described as follows: Kinetics of decomposition (EPR) of superoxide trapping adducts (nitrone-OOH) in phosphate buffer medium. The following applies: for Half-life time: decay of nitrone-OOH adduct, 0.1M phosphate buffer pH=5.8; for order of kinetics of disappearance of the adducts: phosphate buffer pH=5.8; for adduct degradation, times less quickly than the POBN--OOH adducts: phosphate buffer, relative to POBN--OOH. From the text: The adducts from trapping with the superoxide radical were produced using the riboflavin-DTPA (diethylenetriaminepentaacetic acid) system.
This system contains 1M of DTPA, […] of riboflavin and 0.1M of nitrone in a 0.1M phosphate buffer at pH=5.8.
This mixture is transferred into the cell of a Varian E-9 spectrometer. The cell is then irradiated to generate the superoxide radical in situ. At the end of irradiation the decrease in the adducts (nitrone-OOH) is studied using EPR analysis.

For data set [2] the following is noted: for adduct degradation, times more slowly than the POBN--OOH and PBN--OOH adducts: organic medium (DMF, pyridine), relative to POBN--OOH and PBN--OOH. From the text: The adducts from trapping with the superoxide radical were produced using the lumiflavin-DTPA system in pyridine, or dimethylformamide. This contains […] of DTPA, […] of lumiflavin and 0.1M of nitrone in pyridine or dimethylformamide.
The operating procedure followed for the study of the decrease of the adduct from trapping is the same as above.

The next data set can be described thus: physchem. Particulars: for lipophilic/hydrophilic character: from partition coefficients, n-octanol/phosphate buffer; for logD at 1 h: n-octanol/10 mm phosphate buffer, pH 7.4. Here is the method: Biol. Med. 14 (1993) 127. The partition coefficients are defined simply as the ratio of the nitrone concentration in the lipophilic phase (n-octanol) to the nitrone concentration in the aqueous phase.
Identical volumes (2 cm^3) of the octanolic nitrone solution prepared above and of a 10 mM phosphate buffer of pH=7.4 are agitated vigorously at 37° C. for 1 hour and the two phases are then separated by centrifuging (1000 g for 20 s) . The respective nitrone concentrations in each phase are then measured.

Data set [3] is described as follows: EPR spin trapping of HO^. radicals (Fenton's method). Particulars: phosphate buffer pH=7. Here is the method: In this experiment the HO^. radicals were produced by Fenton's method in a 1.1M phosphate buffer at pH=7 in the presence of the […] system. This classical reaction for producing HO^. radicals can be expressed more simply as follows:
H2 O2 +Fe(II)→HO^. +HO-+Fe(III).
The EPR spectrum of the adduct from trapping is recorded approximately 40 s after addition of the ferrous sulphate.
(§1) The stability of these adducts makes it possible to measure the respective coupling constants of the unpaired electron with the nuclei of nitrogen (AN), of hydrogen β to the nitrogen atom (AH) and of phosphorus (AP). These values have been shown together in Table 3 which follows: […]

Data set [4] can be described thus: EPR spin trapping of O2^.-/HOO^. radicals (hypoxanthine/xanthine oxidase system). Particulars: for EPR detection of trapping adduct: HOO^. radicals, hypoxanthine/xanthine oxidase, 0.1M phosphate buffer. Here is the method: For the production of the HOO^. radicals the hypoxanthine/xanthine oxidase system is employed in a 0.1M phosphate buffer maintained at ambient temperature. The oxygen resulting in the formation of the HOO^. radicals is that initially dissolved in the 0.1M phosphate buffer.
The hypoxanthine/xanthine oxidase system contains 0.1M of a phosphate buffer, […] of hypoxanthine, 1 mM of diethylenetriaminepentaacetic acid (DTPA), 0.4 units cm^-3 of xanthine oxidase (marketed by the company Boehringer Mannheim Biochemica Co.), and 0.1M of the nitrone being tested. The EPR spectra of the adducts from trapping are recorded approximately 40 s after the addition of xanthine oxidase.
as §1

For data set [5] the following is noted: cerebral ischaemia-reperfusion or cerebral aging; cited from earlier work.

For the molecule `CC(C)(C)[N+]([O-])=Cc1cc[n+]([O-])cc1` [POBN, α-(1-oxydopyridin-1-ium-4-yl)-N-tert-butylnitrone, reference compound], the Half-life time amounted to 0.317 min in data set [1], 5.05 min in data set [2] (DMF) and 5.23 min in data set [2] (pyridine). Also, the “order of kinetics of disappearance of the adducts” value (“order” for short) in data set [1] was “first order”.

One may read the logD as the decadic logarithm of the distribution of all forms, ionised or not, between an organic phase and buffer at a given pH. The low end stands for lower lipophilicity, the high end for higher lipophilicity. Consider `CCOP(=O)(OCC)C(C)(C)[N+]([O-])=Cc1cc[n+]([O-])cc1` [Example 2, Diethyl 1-[N-oxy-N-[4-(N'-oxypyridyl)formylene]amino]-1-methylethylphosphonate], for which, in “physchem”, the lipophilic/hydrophilic character entry was “lipophilic” and the pH-dependent lipophilicity (logD) at 1 h was 2.29. In addition, in data set [1], the Half-life time was found to be 7.08 min; the “order” value is “first order”; the “adduct degradation, times less quickly than the POBN--OOH adducts” value is reported as “approximately 20 times”. In addition, in data set [2] (DMF), the Half-life time was determined as 16.2 min and the k is recorded as 0.714 ± 0.007 10^3 s^-1. In data set [2], the “adduct degradation, times more slowly than the POBN--OOH and PBN--OOH adducts” value is recorded as “approximately three”. For the same molecule, in data set [2] (pyridine), the Half-life time came to 21.05 min and the k is 0.549 ± 0.003 10^3 s^-1.

Regarding `CC(C)(C)[N+]([O-])=Cc1ccccc1` [PBN, α-phenyl-tert-butylnitrone, reference compound], the “EPR detection of trapping adduct” value in data set [3] and in data set [4] was “No signal could be detected” throughout. Moreover, in data set [4] (EPR spin trapping), the “detection of the radical O2^.-” value is given as “cannot be carried out”. In addition, the Half-life time in data set [2] (DMF) was 4.18 min; in data set [2] (pyridine), 4.42 min. Further, the “reversal of the harmful effects of oxygen-containing free radicals” value in data set [5] was “particularly effective”.

In the case of `CCOP(=O)(OCC)C(C)(C)[N+]([O-])=Cc1ccccc1` [Example 1, Diethyl 1-(N-benzylidene-N-oxy)amino-1-methylethyl-phosphonate], the “EPR detection of trapping adduct” value in data set [3] is recorded as “formation of the adducts”. For the same molecule, the “EPR detection of trapping adduct” value in data set [4] is given as “formation of the adducts”. In addition, in data set [1], the Half-life time came out at 5.12 min; the “order” value is recorded as “first order”; the “adduct degradation, times less quickly than the POBN--OOH adducts” value was “approximately 20 times”.

Consider `CCOP(=O)(OCC)C(C)(C)[N+]([O-])=Cc1ccc(Cl)cc1` [Example 4, Diethyl 1-[[N-(4-chlorophenyl)formylene]-N-oxyamino]-1-methylethylphosphonate], for which, in “physchem”, the lipophilic/hydrophilic character entry is on record as “hydrophilic” and the logD at 1 h is -0.745. The Half-life time in data set [2] (DMF) was 15.2 min. Besides, the “adduct degradation, times more slowly than the POBN--OOH and PBN--OOH adducts” value in data set [2] is listed as “approximately three”. Also, in data set [2] (pyridine), the Half-life time was determined as 20.17 min and the k is on record as 0.573 ± 0.001 10^3 s^-1.
